Experimental findings from patent EP4781986A1, “PHARMACEUTICAL COMPOSITION HAVING IMPROVED PHARMACOKINETIC PROPERTIES” (Sichuan Purity Pharmaceutical Co., Ltd., priority 2023, dated 2025) are described below.

Where two headings read alike, the source gives them in different places.

Series [1] is described as follows: stability test in liver microsomes (human). Type of series: in vitro ADME. To be noted: Human liver microsomes, 60 min. How it is done:
The stability of the compound of the present invention in liver microsomes of rat, monkey and human was determined. Tested compounds of the present invention were the compounds in Examples 6 and 8 , and a control drug was Zavegepant.
3.2 An appropriate amount of liver microsome solution was transferred into a 1 mL 96-deep-well plate, added with a tested drug liquid (or a probe substrate solution), and pre-incubated in a thermal mixer at 37°C for 5 minutes. Two parts of mixed solutions were taken out from the system and added with 1×PBS to replace NADPH, and the mixed solutions were taken out at 0 and 60 minutes respectively, and added with methanol (containing an internal standard) to terminate the reaction. In the remaining mixed system, each well was added with NADPH to start the reaction. In the tested substance group, mixed solutions were taken out from the system at 0, 5, 15, 30, 45 and 60 minutes, and in the control group, mixed solutions were taken out from the system at 0, 30 and 60 minutes, and the mixed solutions were added methanol (containing an internal standard) to terminate the reaction. All samples of the terminated reaction were mixed evenly and centrifuged in a centrifuge at 3800 rpm for 15 minutes, and the supernatant was taken for LC-MS/MS analysis.
A peak area was determined by an extracted ion chromatogram. A slope value k was determined by linear regression of a remaining percentage of a parent drug relative to a natural logarithm of an incubation time curve. According to the slope, in-vitro half-life periods (t1/2) were respectively calculated, and in-vitro intrinsic clearance rates (CLint, represented by µL/min/mg protein) were calculated. Calculation formulas were as follows: t1/2 = ln2/k = 0.693/k; and CLint = 0.693/t1/2 /liver microsome protein concentration [formula]
Background: Liver microsomes are vesicles of endoplasmic reticulum, rich in cytochrome P450 enzymes.

The subject of the next series is Plasma of human. The experiment in a line: plasma protein binding rate test, equilibrium dialysis (human). To be noted: 1 µM, 37°C, 6 hours. The series is classed as in vitro ADME. Here is the method:
Protein binding rates of the compound of the present invention in plasma of rat, monkey and human were determined by an equilibrium dialysis method. Tested compounds of the present invention were the compounds in Examples 6 and 8.
3.1 A dry dialysis membrane was rinsed with ultrapure water for 2-3 times, and then soaked in a phosphate buffer for 1 hour for later use. Polytetrafluoroethylene module was soaked in 20% ethanol for 30 minutes, and then surface moisture was dried with dust-free paper for later use. The pretreated dialysis membrane was assembled into a dialysis plate according to the product specification, and one side (receptor compartment) of an osmotic membrane in each dialysis well was added with 100 µL of receptor fluid (100 mM phosphate buffer solution plus 0.002% Tween 80).
3.2 The plasma was put into a centrifuge tube, a working solution of a tested substance was added into the plasma, wherein a final concentration was 1 µM, and the mixture was turned upside down and mixed evenly (this step was carried out in ice bath). 20 µL of drug-containing plasma each was taken, and was respectively transferred to a 96-well sample plate according to two parts in parallel, and stored in a refrigerator at -20°C as a T0 sample.
3.3 Another 100 µL of the above drug-containing plasma was transferred to the other side (sample compartment) of the membrane in the dialysis device according to two parts in parallel, and incubated under vibration at a constant temperature of 37°C for 6 hours. […]
A plasma protein binding rate and a recovery rate of the compound in plasma were calculated by the following formulas: dissociation percentage (%) = CB /CA; [formula] plasma protein binding rate (fb%) = 1−dissociation percentage (%); [formula] recovery rate (%) = (CB+CA)/CT0 [formula] wherein CB was a concentration of the compound in the receptor fluid after equilibrium dialysis; CA was a concentration of the compound in the drug-containing plasma after equilibrium dialysis; and CT0 was an initial concentration of the compound in plasma.

Series [2] can be described thus: PK properties in monkeys with or without alkyl glycoside, intravenous route and nasal spray. The following applies: for bioavailability / Tmax / AUC / Cmax / half-life / Vd: cynomolgus monkey, plasma; for bioavailability: read-out: Bioavailability F%; for Tmax: read-out: Time to peak Tmax; for AUC: read-out: Area under curve AUC; for Cmax: read-out: Concentration to peak Cmax; for half-life: read-out: Half-life period t1/2 (converted); for Vd: read-out: Volume of distribution steady-state Vss; for Tmax(DDM 0.2%)/ Tmax(DDM 0%) / onset time (Tmax) shortened by: monkeys, intranasal; for Tmax(DDM 0.2%)/ Tmax(DDM 0%): 0.2% DDM vs without DDM; for onset time (Tmax) shortened by: with vs without alkyl glycoside. The series is classed as in vivo, cynomolgus monkey. How it is done: Species: cynomolgus monkey, male, 2-5 kg. Source: Ankai Yibo (Zhanjiang) Biotechnology Co., Ltd., Laboratory Animal Production License No.: SCXK (Yue) 2019-0046. Quantity: 3 cynomolgus monkeys were intravenously administered and 3 cynomolgus monkeys were administered by a nasal spray.
2.1 An appropriate amount of drug was accurately weighed and added with 50 mM succinate buffer (diluted with D5W, pH=5-6), and mixed evenly and dissolved fully in an ultrasonic and vortexed mode to obtain a 0.5 mg/mL drug solution for intravenous administration.
2.2 An appropriate amount of drug was accurately weighed and added with a solvent 1: 50 mM succinate buffer (diluted with pure water, pH=5-6), and mixed evenly and dissolved fully in an ultrasonic and vortexed mode to obtain a 20 mg/mL drug solution, which was put into a nasal spraying device for administration by the nasal spray, 100 µL/spray.
2.3 An appropriate amount of drug was accurately weighed and added with a solvent 2: 50 mM succinate buffer (pH=5-6) containing 0.2% dodecyl-β-D-maltoside, and mixed evenly and dissolved fully in an ultrasonic and vortexed mode to obtain a 20 mg/mL drug solution, which was put into a nasal spraying device for administration by the nasal spray, 100 µL/spray.
5 minutes, 10 minutes, 15 minutes, 0.5 hour, 1 hour, 2 hours, 4 hours, 6 hours, 8 hours, 10 hours, 12 hours and 24 hours after administration.
Blood was collected through a saphenous vein or a cephalic vein, about 0.6 mL of each sample was collected, EDTA-K2 was used for anticoagulation, the collected blood sample was placed on ice, and plasma was centrifugally separated within 2 hours (at 2000 g and 2-8°C for 10 minutes). The collected plasma samples were stored in a refrigerator at -80°C before analysis, and the remaining plasma samples after analysis were continuously stored in the refrigerator at -80°C for temporary storage.
A concentration of a specified compound in plasma was determined by LC-MS/MS, and main pharmacokinetic parameters were calculated by a Winnolin 8.3 non-compartmental model. When the pharmacokinetic parameters were calculated, BLQ before Cmax (comprising "No peak") was calculated as 0; and BLQ (comprising "No peak") after Cmax was excluded from the calculation.

Where [3] appears, read: cynomolgus monkeys, IV@0.5 mg/kg.
The mark [4] stands for this setting: male, other: intranasal (nasal spray), 1 mg/kg, cynomolgus monkeys, IN@1 mg/kg (Solvent 1, no DDM).
Where [5] appears, read: male, other: intranasal (nasal spray), 1 mg/kg, cynomolgus monkeys, IN@1 mg/kg (Solvent 2, 0.2% dodecyl-β-D-maltoside).
Where [6] appears, read: male, other: intranasal (nasal spray), cynomolgus monkeys, IN@1 mg/kg (Solvent 2, 0.2% dodecyl-β-D-maltoside).
Where [7] appears, read: male, other: nasal spray (intranasal), cynomolgus monkeys, IN@1 mg/kg (Solvent 1, no DDM).
Setting [8] is: male, cynomolgus monkeys, IV@0.5 mg/kg.
Setting [9] is: 1 mg/kg, cynomolgus monkeys, IN@1 mg/kg (Solvent 1, no DDM).
The mark [10] stands for this setting: 1 mg/kg, cynomolgus monkeys, IN@1 mg/kg (Solvent 2, 0.2% dodecyl-β-D-maltoside).
[11] abbreviates: iv, 0.5 mg/kg, cynomolgus monkeys, IV@0.5 mg/kg.

In the case of `Cc1cc(C[C@@H](NC(=O)N2CCC(c3cc4c([nH]c3=O)SCC4)CC2)C(=O)N2CCN(C3CCN(C)CC3)CC2)cc2cn[nH]c12` [Example 8, (R)-N-(3-(7-methyl-1H-indazole-5-yl)-1-(4-(1-methylpiperidine-4-yl)piperazine-1-yl)-1-oxopropan-2-yl)-4-(6-oxo-2,3,6,7-tetrahydrothieno[2,3-b]pyridine-5-yl)piperidine-1-formamide], the “% remaining (60 min)” value in series [1] was 85.8%. In the series with Plasma of human, the “fb (%)” value is 64.1%. In addition, the “Apparent clearance CL” value in series [2] (setting [3]) is recorded as 9.27 mL/min/kg. Also, in series [2] (setting [4]), the bioavailability stood at 2.5% and the Tmax amounted to 1 h. Further, in series [2] (setting [5]), the bioavailability is 26.4% and the Tmax was approximately 0.17 h. In series [2] (setting [6]), the AUC worked out at 412 ng·h/mL, the Cmax came to 401 ng/mL and the half-life is 4.92 h. Further, in series [2] (setting [7]), the AUC was found to be 46.1 ng·h/mL, the Cmax is 13.4 ng/mL and the half-life was 5.58 h. In series [2] (setting [8]), the AUC was 924 ng·h/mL, the Cmax amounted to 2280 ng/mL, the half-life is 4.98 h and the Vd was 0.738 L/kg. Moreover, in series [2], the “Tmax(DDM 0.2%)/ Tmax(DDM 0%)” value is 16.7% and the “onset time (Tmax) shortened by” value is reported as 83.3%.
On to `Cc1cc(C[C@@H](NC(=O)N2CCC(c3cc4c([nH]c3=O)SCCC4)CC2)C(=O)N2CCN(C3CCN(C)CC3)CC2)cc2cn[nH]c12` [Example 6, (R)-N-(3-(7-methyl-1H-indazole-5-yl)-1-(4-(1-methylpiperidine-4-yl)piperazine-1-yl)-1-oxopropan-2-yl)-4-(7-oxo-3,4,7,8-tetrahydro-2H-thiopyrano[2,3-b]pyridine-6-yl)piperidine-1-formamide], for which the “% remaining (60 min)” value in series [1] is 131%. For the same compound, in the series on Plasma of human, the “fb (%)” value is 76.7%. Besides, in series [2] (setting [9]), the AUC is 43.2 ng·h/mL, the bioavailability came out at 1.99%, the Cmax was 12.7 ng/mL and the half-life is 9 h. Also, the Tmax in series [2] (setting [9]) was 1 h. In series [2] (setting [10]), the AUC came to 780 ng·h/mL, the bioavailability came out at 29.8%, the Cmax was 663 ng/mL and the half-life is 5.57 h. Besides, the Tmax in series [2] (setting [10]) is approximately 0.17 h. Also, in series [2] (setting [11]), the AUC came to 1140 ng·h/mL, the Cmax is 3200 ng/mL and the half-life was 4.98 h. Moreover, in series [2] (setting [3]), the Vd is 0.652 L/kg. Also, in series [2], the “Tmax(DDM 0.2%)/ Tmax(DDM 0%)” value stood at 16.7% and the “onset time (Tmax) shortened by” value is recorded as 83.3%.

As usually defined, the bioavailability is the share of a dose that reaches the circulation, judged against a reference dose that is usually intravenous. As usually defined, the Tmax is the time from dosing to the highest level. In general, AUC refers to the area under the concentration-time curve, a measure of exposure.
